Experimental data published in article PMC4437783, “An Improved Method for P2X7R Antagonist Screening” (PLoS ONE, 2015).

What was measured:
Type in all cases: cell-based
[1] = target: T1, P2X7 receptor (mP2X7R) (Mus musculus, UniProt Q9Z1M0); experiment: inhibition of ATP-induced PI dye uptake in J774.G8 cells, plate reader
T1 construct: gene P2rx7; natively expressed in J774.G8 macrophages
T1 sequence (Q9Z1M0 1-595): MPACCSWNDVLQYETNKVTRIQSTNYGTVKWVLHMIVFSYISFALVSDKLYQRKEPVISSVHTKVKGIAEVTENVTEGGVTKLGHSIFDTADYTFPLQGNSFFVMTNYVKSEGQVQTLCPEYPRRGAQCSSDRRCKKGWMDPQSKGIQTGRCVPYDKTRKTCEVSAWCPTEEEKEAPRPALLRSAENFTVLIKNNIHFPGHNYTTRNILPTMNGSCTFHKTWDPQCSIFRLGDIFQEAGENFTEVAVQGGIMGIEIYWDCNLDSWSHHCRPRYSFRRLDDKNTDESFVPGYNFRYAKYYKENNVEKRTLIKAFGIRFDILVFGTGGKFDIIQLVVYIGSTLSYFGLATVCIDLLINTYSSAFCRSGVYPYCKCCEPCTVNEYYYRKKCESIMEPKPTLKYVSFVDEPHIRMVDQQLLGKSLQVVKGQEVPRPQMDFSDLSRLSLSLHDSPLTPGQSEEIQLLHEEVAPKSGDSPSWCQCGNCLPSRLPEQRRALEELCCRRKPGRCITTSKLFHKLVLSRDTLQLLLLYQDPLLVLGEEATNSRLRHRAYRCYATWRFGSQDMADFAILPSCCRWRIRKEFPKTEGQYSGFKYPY

[2] = target: T1, P2X7 receptor (mP2X7R); experiment: agonist dose-response, PI dye uptake in J774.G8 cells, plate reader
[3] = target: T1, P2X7 receptor (mP2X7R); experiment: block of ATP-induced PI dye uptake in J774.G8 cells at a single concentration ([…])
[4] = target: T2, P2X7 receptor (P2X7R) (Homo sapiens, UniProt Q99572); experiment: block of ATP-induced PI dye uptake in U937 cells at a single concentration ([…])
T2 construct: gene P2RX7; native in U937 human monocyte cells
T2 sequence (Q99572 1-595): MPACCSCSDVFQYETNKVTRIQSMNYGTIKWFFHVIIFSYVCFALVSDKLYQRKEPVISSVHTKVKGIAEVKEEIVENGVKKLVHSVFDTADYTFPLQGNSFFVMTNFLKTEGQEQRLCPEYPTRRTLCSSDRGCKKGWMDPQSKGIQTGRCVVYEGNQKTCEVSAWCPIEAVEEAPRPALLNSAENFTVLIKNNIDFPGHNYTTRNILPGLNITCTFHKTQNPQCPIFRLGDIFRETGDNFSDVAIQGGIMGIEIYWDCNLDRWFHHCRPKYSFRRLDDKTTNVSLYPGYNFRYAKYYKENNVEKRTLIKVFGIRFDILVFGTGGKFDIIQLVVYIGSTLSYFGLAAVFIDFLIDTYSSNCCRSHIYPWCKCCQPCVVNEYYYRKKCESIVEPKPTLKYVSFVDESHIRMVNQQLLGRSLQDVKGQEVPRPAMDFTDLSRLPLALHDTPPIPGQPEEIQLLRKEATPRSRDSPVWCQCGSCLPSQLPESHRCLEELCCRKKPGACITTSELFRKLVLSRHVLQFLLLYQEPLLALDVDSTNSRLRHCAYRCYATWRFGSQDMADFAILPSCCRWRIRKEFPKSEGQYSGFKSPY

[5] = target: T1, P2X7 receptor (mP2X7R); experiment: inhibition of ATP-induced dye uptake in J774.G8 cells, plate reader

CCOc1ccc(Nc2ccc(/C(=C3C=C/C(=[N+](/CC)Cc4cccc(S(=O)(=O)[O-])c4)C=C/3C)c3ccc(N(CC)Cc4cccc(S(=O)(=O)O)c4)cc3C)cc2)cc1 [BBG, Brilliant Blue G]
IC50 [1]: 1.3 to 2.6 µM

Nc1ncnc2c1ncn2[C@@H]1O[C@H](COP(=O)(O)OP(=O)(O)OP(=O)(O)O)[C@@H](O)[C@H]1O [ATP]
EC50 [2]: 700 ± 70 µM

O=C1CSC(=O)N1C(CCc1ccncc1)COc1ccc(-c2cccc([N+](=O)[O-])c2)cc1 (centres unmarked) [AZ, AZ11645373]
block of ATP-induced PI dye uptake in J774.G8 cells at a single concentration (1) [3]: the treatment with the selective P2X7R antagonist AZ11645373 blocked the dye uptake | block of ATP-induced PI dye uptake in U937 cells at a single concentration (10 μ) [4]: the treatment with the selective P2X7R antagonist AZ11645373 blocked the dye uptake

Nc1ncnc2c1ncn2[C@@H](C=O)O[C@@H](C=O)COP(=O)(O)OP(=O)(O)OP(=O)(O)O [OATP, oxidized ATP]
IC50 [5]: 173 to 285 µM
